Experimental findings from patent US11542273B2, “Amide compound having bet proteolysis-inducing action and medicinal application thereof” (MITSUBISHI TANABE PHARMA CORPORATION, priority 2018, dated 2023) are described below.

Assay [1] deals with human prostate cancer LNCaP cells. The assay is described as follows: Cytotoxic action on cancer cells (WST-8, 96 hr). The assay is classed as cell-based. Conditions: Homo sapiens, LNCaP, 96 h, read-out: LNCaP cytotoxic activity: IC50. On the procedure: The cytotoxic action of the compound of the present invention against human cancer cells was evaluated in vitro. In this experiment, (+)-JQ1 (Nature volume 468, pages 1067-1073 (23 Dec. 2010)) known to have an inhibitory activity on the binding of BRD4 protein and a ligand therefor was used as a positive control drug. Respective cells were suspended in 10% FBS/RPMI1640, seeded in a 96 well plate and cultured at 5% CO2, 37° C. overnight. A test compound dissolved in DMSO was diluted with 10% FBS/RPMI1640 and added and the cells were further cultured for 96 hr. After culturing, the viable cell number was measured using a cell number measurement WST-8 kit (Kishida Chemical Co., Ltd.). As a control, the measurement was performed under conditions free of the test compound. The cytotoxic activity of the compound of the present invention against human prostate cancer LNCaP cells is shown in IC50 value in Table 1. […] It was calculated from the straight line connecting the cell survival rate at two points enclosing the 50% cell survival rate and the compound concentration. In addition, the cytotoxic activity against respective cancer cells of human acute myeloid leukemia MV-4-11 cell, human chronic myeloid leukemia K562 cell, human multiple myeloma MM.1S cell, human diffuse large B-cell lymphoma SU-DHL-6 cell, human T-cell leukemia Jurkat cells, human Burkitt lymphoma Raji cell, human castration-resistant prostate cancer PC-3 cell, human ovarian cancer A2780 cell, human bladder cancer 5637 cell, human breast cancer ZR-75-1 cell, human triple negative breast cancer MDA-MB-231 cell, human uterine sarcoma MES-SA cell, human gastric cancer SNU-16 cell, human non-small cell lung cancer NCI-H1975 cell, human small cell lung cancer NCI-H82 cell, human large cell lung cancer NCI-H460 cell, human colorectal cancer HCT116 cell, human glioma U-87 MG cell, human pancreatic cancer AsPC-1 cell, and human liver cancer Hep G2 cell is shown in IC50 value in Table 2.
For orientation: Formazan colour is commonly taken as a measure of viable cells.

The target of assay [2] is BRD4 protein (Homo sapiens (Human), UniProt O60885). Description: BRD4 protein degradation inducing action in cancer cells (immunofluorescence, Operetta). The assay is classed as cell-based. The note with it: LNCaP cells, 6 hr treatment, fluorescence intensity. The protocol: The degradation inducing action of the compound of the present invention on BRD4 protein in cancer cells was evaluated in vitro using human prostate cancer LNCaP cells. LNCaP cells were suspended in 10% FBS/RPMI1640, seeded in a 96 well Cell carrier plate (Perkin Elmer) and cultured at 5% CO2, 37° C. overnight. A test compound dissolved in DMSO was diluted with 10% FBS/RPMI1640 and added and the cells were further cultured for 6 hr. After culturing, the cells were immobilized with 4% para-formaldehyde/PBS and further subjected to a permeation treatment with 0.25% Triton X-100/PBS. Thereafter, the cells were blocked with 10% BSA/PBS, a solution containing Anti-Brd4 antibody (Abcam) or Anti-BRD4 (Sigma-Aldrich) as the primary antibody was added and the cells were incubated at 4° C. overnight. Thereafter, as the secondary antibody, a solution containing secondary antibody A shown below was added to Example compounds 1-190, 223 and 224, and a solution containing secondary antibody B shown below was added to Example compounds 191-222, and 0.5 μg/mL Hoechst 33342 (Sigma-Aldrich) and 14 μM Acti-Stain 555 Fluorescent Phalloidin (Cytoskeleton) were further added. After incubation for 1 hr, BRD4 protein amount was measured by Operetta (Perkin Elmer) as fluorescence intensity.
• Anti-Rabbit IgG(H+L), F(ab′)2 Fragment (Alexa Fluor 488 Conjugate) (Cell Signaling Technology), fluorescence intensity was measured at excitation: 495 nm, emission: 519 nm. Secondary Antibody B • Goat anti-Rabbit IgG(H+L) Cross-Adserbed Secondary Antibody (Alexa Fluor 546) (Thermo Fisher Scientific) fluorescence intensity was measured at excitation: 560 nm, emission: 572 nm.
The BRD4 protein degradation inducing activity of the compound of the present invention in LNCaP cells is shown in DC50 value in Table 3. The DC50 value is a concentration of the compound showing 50% fluorescence intensity when the fluorescence intensity thereof under compound untreated condition is 100%. It was calculated from the straight line connecting the fluorescence intensity at two points enclosing the 50% fluorescence intensity and the compound concentration.

Structures are written as SMILES.

What is called IC50 is the concentration at which inhibition is half-maximal. One may read the DC50 as the concentration giving 50% degradation.

Turning to `Cc1ncsc1-c1ccc([C@H](C)NC(=O)[C@@H]2C[C@@H](O)CN2C(=O)[C@@H](NC(=O)CCCCc2ccc(C3=N[C@@H](C)c4nnc(C)n4-c4sc(C)c(C)c43)cc2)C(C)(C)C)cc1` [Example 192, (2S,4R)-1-{(2S)-3,3-dimethyl-2-[(5-{4-[(6S)-2,3,6,9-tetramethyl-6H-thieno[3,2-f][1,2,4]triazolo[4,3-a] [1,4]diazepin-4-yl]phenyl}pentanoyl)amino]butanoyl}-4-hydroxy-N-{(1S)-1-[4-(4-methyl-1,3-thiazol-5-yl)phenyl]ethyl}pyrrolidine-2-carboxamide], the IC50 in assay [1] came to 0.46 nM. For the same compound, in assay [2], half-maximal degradation (DC50) was put at 0.77 nM.

For the compound `COC(=O)C[C@@H]1N=C(c2ccc(-c3ccc(C(=O)N[C@H](C(=O)N4C[C@H](O)C[C@H]4C(=O)N[C@@H](C)c4ccc(-c5scnc5C)cc4)C(C)(C)C)c(F)c3F)cc2)c2c(sc(C)c2C)-n2c(C)nnc21` [Example 176, methyl {(6S)-4-[2′,3′-difluoro-4′-({(2S)-1-[(2S,4R)-4-hydroxy-2-({(1S)-1-[4-(4-methyl-1,3-thiazol-5-yl)phenyl]ethyl}carbamoyl)pyrrolidin-1-yl]-3,3-dimethyl-1-oxobutan-2-yl}carbamoyl)[1,1′-biphenyl]-4-yl]-2,3,9-trimethyl-6H-thieno[3,2-f][1,2,4]triazolo[4,3-a][1,4]diazepin-6-yl}acetate], the IC50 in assay [1] came to 0.39 nM. Further, in assay [2], the DC50 was 0.44 nM.

In the case of `COC(=O)C[C@@H]1N=C(c2ccc(N3CCN(c4cccc(C(=O)N[C@H](C(=O)N5C[C@H](O)C[C@H]5C(=O)N[C@@H](C)c5ccc(-c6scnc6C)cc5)C(C)(C)C)n4)CC3)cc2)c2c(sc(C)c2C)-n2c(C)nnc21` [Example 177, methyl [(6S)-4-(4-{4-[6-({(2S)-1-[(2S,4R)-4-hydroxy-2-({(1S)-1-[4-(4-methyl-1,3-thiazol-5-yl)phenyl]ethyl}carbamoyl)pyrrolidin-1-yl]-3,3-dimethyl-1-oxobutan-2-yl}carbamoyl)pyridin-2-yl]piperazin-1-yl}phenyl)-2,3,9-trimethyl-6H-thieno[3,2-f][1,2,4]triazolo[4,3-a] [1,4]diazepin-6-yl]acetate], the 50% inhibitory concentration (IC50) in assay [1] turned out to be 0.36 nM. Also, in assay [2], half-maximal degradation (DC50) was put at 0.23 nM.

For `COC(=O)C[C@@H]1N=C(c2ccc(-c3ccc(OCC(=O)N[C@H](C(=O)N4C[C@H](O)C[C@H]4C(=O)N[C@@H](C)c4ccc(-c5scnc5C)cc4)C(C)(C)C)nc3)cc2)c2c(sc(C)c2C)-n2c(C)nnc21` [Example 63, methyl [(6S)-4-(4-{6-[2-({(2S)-1-[(2S,4R)-4-hydroxy-2-({(1S)-1-[4-(4-methyl-1,3-thiazol-5-yl)phenyl]ethyl}carbamoyl)pyrrolidin-1-yl]-3,3-dimethyl-1-oxobutan-2-yl}amino)-2-oxoethoxy]pyridin-3-yl}phenyl)-2,3,9-trimethyl-6H-thieno[3,2-f][1,2,4]triazolo[4,3-a][1,4]diazepin-6-yl]acetate], the concentration for half-maximal inhibition (IC50) in assay [1] was determined as 0.037 nM. In assay [2], this compound registered a DC50 of 0.11 nM.

For the compound `COC(=O)C[C@@H]1N=C(c2ccc(Nc3cccc(OCC(=O)N[C@H](C(=O)N4C[C@H](O)C[C@H]4C(=O)N[C@@H](C)c4ccc(-c5scnc5C)cc4)C(C)(C)C)c3)cc2)c2c(sc(C)c2C)-n2c(C)nnc21` [Example 47, methyl [(6S)-4-(4-{3-[2-({(2S)-1-[(2S,4R)-4-hydroxy-2-({(1S)-1-[4-(4-methyl-1,3-thiazol-5-yl)phenyl]ethyl}carbamoyl)pyrrolidin-1-yl]-3,3-dimethyl-1-oxobutan-2-yl}amino)-2-oxoethoxy]anilino}phenyl)-2,3,9-trimethyl-6H-thieno[3,2-f][1,2,4]triazolo[4,3-a][1,4]diazepin-6-yl]acetate], in assay [1], the IC50 was found to be 0.42 nM. Also, the DC50 in assay [2] came out at 0.45 nM.

With `COC(=O)C[C@@H]1N=C(c2ccc(-n3ccc(C(=O)N[C@H](C(=O)N4C[C@H](O)C[C@H]4C(=O)N[C@@H](C)c4ccc(-c5scnc5C)cc4)C(C)(C)C)n3)cc2)c2c(sc(C)c2C)-n2c(C)nnc21` [Example 172, methyl [(6S)-4-{4-[3-({(2S)-1-[(2S,4R)-4-hydroxy-2-({(1S)-1-[4-(4-methyl-1,3-thiazol-5-yl)phenyl]ethyl}carbamoyl)pyrrolidin-1-yl]-3,3-dimethyl-1-oxobutan-2-yl}carbamoyl)-1H-pyrazol-1-yl]phenyl}-2,3,9-trimethyl-6H-thieno[3,2-f][1,2,4]triazolo[4,3-a][1,4]diazepin-6-yl]acetate], the IC50 in assay [1] stood at 0.36 nM. In assay [2], this compound came in with a DC50 of 0.37 nM.

As for `COC(=O)C[C@@H]1N=C(c2ccc(-c3ccc4cc(C(=O)N[C@H](C(=O)N5C[C@H](O)C[C@H]5C(=O)N[C@@H](C)c5ccc(-c6scnc6C)cc5)C(C)(C)C)oc4c3)cc2)c2c(sc(C)c2C)-n2c(C)nnc21` [Example 164, methyl [(6S)-4-{4-[2-({(2S)-1-[(2S,4R)-4-hydroxy-2-({(1S)-1-[4-(4-methyl-1,3-thiazol-5-yl)phenyl]ethyl}carbamoyl)pyrrolidin-1-yl]-3,3-dimethyl-1-oxobutan-2-yl}carbamoyl)-1-benzofuran-6-yl]phenyl}-2,3,9-trimethyl-6H-thieno[3,2-f][1,2,4]triazolo[4,3-a][1,4]diazepin-6-yl]acetate], in assay [1], the half-inhibitory concentration (IC50) amounted to 0.077 nM. Further, the DC50 in assay [2] is 0.066 nM.

Regarding `CCOC(=O)c1ncsc1-c1ccc(CNC(=O)[C@@H]2C[C@@H](O)CN2C(=O)[C@@H](NC(=O)c2ccc(-c3ccc(C4=N[C@@H](CC(=O)OC)c5nnc(C)n5-c5sc(C)c(C)c54)cc3)cc2)C(C)(C)C)cc1` [Example 219, ethyl 5-{4-[({(2S,4R)-4-hydroxy-1-[(2S)-2-({4′-[(6S)-6-(2-methoxy-2-oxoethyl)-2,3,9-trimethyl-6H-thieno[3,2-f] [1,2,4]triazolo[4,3-a][1,4]diazepin-4-yl][1,1′-biphenyl]-4-carbonyl}amino)-3,3-dimethylbutanoyl]pyrrolidine-2-carbonyl}amino)methyl]phenyl}-1,3-thiazole-4-carboxylate], in assay [1], the IC50 was 0.52 nM. Also, half-maximal degradation in assay [2] (DC50) was put at 0.52 nM.

As to `Cc1ncsc1-c1ccc([C@H](C)NC(=O)[C@@H]2C[C@@H](O)CN2C(=O)[C@@H](NC(=O)c2cc(F)c(-c3ccc(C4=N[C@@H](C)c5nnc(C)n5-c5sc(C)c(C)c54)cc3)cc2Cl)C(C)(C)C)cc1` [Example 204, (2S,4R)-1-[(2S)-2-({5-chloro-2-fluoro-4′-[(6S)-2,3,6,9-tetramethyl-6H-thieno[3,2-f][1,2,4]triazolo[4,3-a] [1,4]diazepin-4-yl][1,1′-biphenyl]-4-carbonyl}amino)-3,3-dimethylbutanoyl]-4-hydroxy-N-{(1S)-1-[4-(4-methyl-1,3-thiazol-5-yl)phenyl]ethyl}pyrrolidine-2-carboxamide], the IC50 in assay [1] turned out to be 0.32 nM. The same compound gave a 50% degradation concentration (DC50) in assay [2] of 0.51 nM.

As to `COC(=O)C[C@@H]1N=C(c2ccc(-c3ccc(OC(C)C(=O)N[C@H](C(=O)N4C[C@H](O)C[C@H]4C(=O)N[C@@H](C)c4ccc(-c5scnc5C)cc4)C(C)(C)C)cc3)cc2)c2c(sc(C)c2C)-n2c(C)nnc21` (stereo partly drawn) [Example 50, methyl [(6S)-4-(4′-{[1-({(2S)-1-[(2S,4R)-4-hydroxy-2-({(1S)-1-[4-(4-methyl-1,3-thiazol-5-yl)phenyl]ethyl}carbamoyl)pyrrolidin-1-yl]-3,3-dimethyl-1-oxobutan-2-yl}amino)-1-oxopropan-2-yl]oxy}[1,1′-biphenyl]-4-yl)-2,3,9-trimethyl-6H-thieno[3,2-f][1,2,4]triazolo[4,3-a] [1,4]diazepin-6-yl]acetate], the IC50 in assay [1] was 0.25 nM. In assay [2], this compound registered a 50% degradation concentration (DC50) of 0.61 nM.
